Data from publication PMC8778300 (Molecules, 2022).

Tests used:
[1] = target: T1, human recombinant ALDH1a1 (Homo sapiens, UniProt P00352); assay: ALDH enzyme inhibition assay (ALDH1a1), diaphorase/resorufin fluorescence; assay type: biochemical; conditions: for IC50: read-out: IC50 (µM) ± SE (ALDH1a1); for fold reduction of ALDH1a1 inhibitory activity: relative to compound (2)
T1 sequence (P00352 1-501): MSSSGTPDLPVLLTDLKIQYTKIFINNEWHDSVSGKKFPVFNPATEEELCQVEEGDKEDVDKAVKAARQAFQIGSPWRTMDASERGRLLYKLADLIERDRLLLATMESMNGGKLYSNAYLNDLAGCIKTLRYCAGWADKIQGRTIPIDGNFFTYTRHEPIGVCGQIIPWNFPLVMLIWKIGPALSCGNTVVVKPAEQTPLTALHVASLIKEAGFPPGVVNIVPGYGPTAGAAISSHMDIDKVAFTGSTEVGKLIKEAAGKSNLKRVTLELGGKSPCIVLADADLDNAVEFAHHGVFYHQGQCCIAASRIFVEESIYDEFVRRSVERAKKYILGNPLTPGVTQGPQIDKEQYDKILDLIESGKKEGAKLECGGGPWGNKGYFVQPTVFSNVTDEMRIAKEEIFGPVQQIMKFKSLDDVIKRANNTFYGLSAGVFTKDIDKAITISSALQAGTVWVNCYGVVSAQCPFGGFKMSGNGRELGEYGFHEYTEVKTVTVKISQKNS
Procedure: (§1) The inhibitory activity of the thiuram disulfide (4) was evaluated in vitro against human recombinant ALDH1a1 and ALDH2, as shown in Figure 3 and Table 1.
(§2) All tested compounds were prepared as 100 mM stock solutions in DMSO. […] Five µL of desalted enzyme […] Five µL of reaction buffer were also added to the “no enzyme” background control wells. The test compounds were added to the assay wells. The reaction plate was then centrifuged briefly at 1200 rpm, then incubated for 20 min at RT. […] The reaction plate was briefly centrifuged and incubated at RT for 60 min. Ten µL of detection reagent composed of 15 µg/mL diaphorase and […] were added. The reaction plate was briefly centrifuged and incubated for a further 10 min at RT in the dark.

[2] = target: T2, human recombinant ALDH2 (Homo sapiens, UniProt P05091); assay: ALDH enzyme inhibition assay (ALDH2), diaphorase/resorufin fluorescence; assay type: biochemical; conditions: average of at least two experiments ± standard error; 100 µM acetaldehyde, 500 µM NAD+; 20 min preincubation; NI = no inhibition up to 0.5 mM; read-out: IC50 (µM) ± SE (ALDH2)
T2 sequence (P05091 18-517): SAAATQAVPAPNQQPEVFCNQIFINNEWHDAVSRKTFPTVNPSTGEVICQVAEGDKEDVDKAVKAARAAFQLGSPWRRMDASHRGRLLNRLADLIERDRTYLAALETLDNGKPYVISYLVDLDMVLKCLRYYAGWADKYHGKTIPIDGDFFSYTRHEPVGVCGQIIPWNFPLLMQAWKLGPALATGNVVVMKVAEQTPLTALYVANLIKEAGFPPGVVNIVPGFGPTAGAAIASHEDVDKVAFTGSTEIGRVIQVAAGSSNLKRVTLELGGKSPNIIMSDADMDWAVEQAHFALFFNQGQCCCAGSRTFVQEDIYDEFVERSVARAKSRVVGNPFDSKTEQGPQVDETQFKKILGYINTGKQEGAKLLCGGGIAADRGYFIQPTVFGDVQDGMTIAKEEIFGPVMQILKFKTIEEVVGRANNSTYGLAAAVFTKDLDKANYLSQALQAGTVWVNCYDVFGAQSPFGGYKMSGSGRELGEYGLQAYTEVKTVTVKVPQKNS
Procedure: as §1, §2

[3] = target: T2, human recombinant ALDH2; conditions: previously reported; cited from earlier work
[4] = average of at least two experiments ± standard error, 250 µM acetaldehyde, 500 µM NAD+, 20 min preincubation, NI = no inhibition up to 0.5 mM

| SMILES | IC50 [1, 4] [µM] | fold reduction of ALDH1a1 inhibitory activity [1] | IC50 [2] [µM] | IC50 (µM) ± SE (ALDH1a1) [1, 4] | IC50 against ALDH2 [3] |
| --- | --- | --- | --- | --- | --- |
| CCN(Cc1ccc(Cl)cc1)C(=S)SSC(=S)N(CC)Cc1ccc(Cl)cc1 [Compound 4c, bis(N-4-Chlorobenzylethylthiocarbamoyl)disulphide] | 0.86 ± 0.68 | five | > 500 | – | – |
| CCN(Cc1ccc(C(F)(F)F)cc1)C(=S)SSC(=S)N(CC)Cc1ccc(C(F)(F)F)cc1 [Compound 4d, bis(N-4-trifluoromethylbenzylethylthiocarbamoyl)disulphide] | > 500 | – | > 500 | completely inactive | – |
| CCN(Cc1ccccc1F)C(=S)SSC(=S)N(CC)Cc1ccccc1F [Compound 4b, bis(N-2-Fluorobenzylethylthiocarbamoyl)disulphide] | 0.59 ± 0.46 | 3.5 fold | > 500 | – | – |
| CCN(Cc1ccncc1)C(=S)SSC(=S)N(CC)Cc1ccncc1 [Compound 4f, bis(N-(4-pyridylmethyl)ethylthiocarbamoyl)disulphide] | 5.76 ± 4.01 | more than 33 fold | > 500 | – | – |

The next lines start with results.

| IC50 [1, 4] [µM] | fold reduction of ALDH1a1 inhibitory activity [1] | IC50 [2] [µM] | IC50 (µM) ± SE (ALDH1a1) [1, 4] | SMILES | IC50 against ALDH2 [3] |
| --- | --- | --- | --- | --- | --- |
| 0.39 ± 0.27 | – | 200 | – | CCN(Cc1ccco1)C(=S)SSC(=S)N(CC)Cc1ccco1 [Compound 4g, bis(N-(2-furylmethyl)ethylthiocarbamoyl)disulphide] | – |
| 0.58 ± 0.41 | – | > 500 | – | CCN(Cc1ccc(OC)cc1)C(=S)SSC(=S)N(CC)Cc1ccc(OC)cc1 [Compound 4e] | – |
| 0.39 ± 0.31 | – | > 500 | – | CCN(Cc1cccs1)C(=S)SSC(=S)N(CC)Cc1cccs1 [Compound 4h, bis(N-(2-thienylmethyl)ethylthiocarbamoyl)disulphide] | – |
| 0.17 ± 0.06 | – | > 500 | – | CCN(Cc1ccc(F)cc1)C(=S)SSC(=S)N(CC)Cc1ccc(F)cc1 [Compound 2] | no inhibition |
| 0.31 ± 0.14 | 2 fold | > 500 | – | CCN(Cc1cccc(F)c1)C(=S)SSC(=S)N(CC)Cc1cccc(F)c1 [Compound 4a, bis(N-3-Fluorobenzylethylthiocarbamoyl)disulphide] | – |
| 0.17 ± 0.1 | – | > 500 | – | CCN(Cc1ccsc1)C(=S)SSC(=S)N(CC)Cc1ccsc1 [Compound 4i, bis(N-(3-thienylmethyl)ethylthiocarbamoyl)disulphide] | – |
